Results as given in patent EP1336412A1, “Combinations of an antibiotic and a murein hydrolase inhibitor” (priority 2002, dated 2003).

Columns and labels:
[1] = system: E. coli MHD52 (deletion of AmiABC); experiment: Growth of E. coli with inhibited murein septum cleavage (MHD52) after addition of agent; type: cell-based, Escherichia coli; conditions: LB medium, 37°C, aerobic
Experimental: (§1) Bacteria were cultivated aerobically at 37° C in LB medium (J.H. Miller, Experiments in Molecular Genetics, Cold Spring Harbor Laboratory, Cold Spring Harbor (1972)). Agar plates contained 1.5 % agar (Gibco BRL, Paisley, Scotland). Growth was monitored by optical density readings at 578 nm in an Eppendorf photometer (Eppendorf, Hamburg, Germany). Antibiotics were used at the following concentrations: 50 (µg/ml ampicillin (amp), 50 (µg/ml kanamycin (kan), 20 (µg/ml chloramphenicol (cm) and 12.5 µg/ml tetracyclin (tet).
(§2) At the indicated time point (arrow) deoxycholate (1 g/l) or crystal violet (1 mg/l), respectively, were added. See the results in Fig. 4 (filled circles: wild type E. coli plus deoxycholate; filled triangles: MHD52 plus crystal violet; filled squares: MHD52 plus deoxycholate). Likewise, the cells were grown in the same manner, but at the indicated time point (arrow) vancomycin (20 µg/ml) was added. See the results in Fig. 5 (open circles: wild type E. coli; filled circles: wild type E. coli plus vancomycin; open squares: MHD52; filled squares: MHD52 plus vancomycin).

[2] = system: wild-type E. coli MC1061; experiment: Growth of wild-type E. coli after addition of agent; type: cell-based, Escherichia coli; conditions: vancomycin 20 µg/ml; LB medium, 37°C, aerobic; wild type (septum cleavage not inhibited)
Experimental: as §1, §2

[3] = system: bacterial cells following the inhibition of the cleavage of the bacterial murein septum; experiment: Sensitivity of bacterial cells to detergents and high molecular weight antibiotics after inhibition of murein septum cleavage; type: cell-based

| Compound | sensitivity of bacterial cells [3] | other results |
| --- | --- | --- |
| CN(C)c1ccc(C(=C2C=CC(=[N+](C)C)C=C2)c2ccc(N(C)C)cc2)cc1 [crystal violet] | – | effect on growth (Fig. 4) ([1]; crystal violet 1 mg/l, MHD52): insignificant effect |
| CN[C@H](CC(C)C)C(=O)N[C@H]1C(=O)N[C@@H](CC(N)=O)C(=O)N[C@H]2C(=O)N[C@H]3C(=O)N[C@H](C(=O)N[C@H](C(=O)O)c4cc(O)cc(O)c4-c4cc3ccc4O)[C@H](O)c3ccc(c(Cl)c3)Oc3cc2cc(c3O[C@@H]2O[C@H](CO)[C@@H](O)[C@H](O)[C@H]2O[C@H]2C[C@](C)(N)[C@H](O)[C@H](C)O2)Oc2ccc(cc2Cl)[C@H]1O [vancomycin] | – | effect on growth (Fig. 5) ([1]; vancomycin 20 µg/ml, MHD52 (septum cleavage inhibited)): growth controlling effect; effect on growth (Fig. 5) [2]: normal growth |
| Triton X100 | significant increase in the sensitivity | – |
| mersacidin | significant increase in the sensitivity | – |
| ramoplanin | significant increase in the sensitivity | – |
